# Where a name gives a salt, the structure may show the parent alone.
# System: Phospho-EGFR in H1975 cell line
# Assay: HTRF Phospo EGFR Assay (Cellular)
# Assay type: cell-based
# Details: Homo sapiens, NCI-H1975; H1975 cells, 6 hours compound incubation in starving medium, HTRF phospho-EGFR readout
# Protocol: HTRF Phospo EGFR Assay (Cellular)
# H1975 cell line was obtained from American Type Culture Collection (Manassas, Va., USA). Cells were maintained at 37° C., 5% CO2 in complete Media RPMI 1640 without phenol red containing 0.3 mg/ml glutamine, 100 IU/ml penicillin, and […] (Gibco) supplemented with 10% fetal bovine serum (FBS) (Gibco). Compounds were diluted into starving medium RPMI 1640 Media without phenol red containing 0.3 mg/ml glutamine, 100 IU/ml penicillin, and […] (Gibco).
# Cells were cultured overnight in a 384-well white plate (8000 cells/well) using 8 μl of complete medium/well. Cells were washed two times with 20 μl of starving medium. Media was removed by tapping plates on tissue and subsequently 8 μl of fresh starving medium/well was added. Then 4 μl/well of the 3× compound solution, containing a half-log dilution series of the compound or DMSO in starving medium, were added to the cells. After 6 hours at 37° C., 5% CO2 cells were lysed by adding to the compound mix 4 μl/well of the supplemented lysis buffer, followed by incubation for 30 min at room temperature with shaking. Lysates were stored at −20° C. over night. The following day plates were thawed and 2 μl of anti-Phospho-EGFR Cryptate and 2 μl of anti-Phospho-EGFR-d2 antibody solutions prepared in the detection buffer were added. The plates were then incubated for at least 4 h at room temperature before reading the fluorescence emission at 620 and 665 nm using PHERAstar FX plate reader (BMG Labtech).
row,SMILES,IC50
1,"O=C(Nc1ccccn1)C(c1ccccc1)n1cc2ccccc2n1 (racemic) [Example 1, (2RS)-2-Indazol-2-yl-2-phenyl-N-(2-pyridyl)acetamide]",1.76 µM
2,"O=C(Nc1nccs1)C(c1ccccc1)n1cc2ccccc2n1 (racemic) [Example 2, (2RS)-2-Indazol-2-yl-2-phenyl-N-thiazol-2-yl-acetamide]",0.077 µM
3,"Nc1ccc2cn(C(C(=O)Nc3nccs3)c3ccccc3)nc2c1 (racemic) [Example 3, (2RS)-2-(6-Aminoindazol-2-yl)-2-phenyl-N-thiazol-2-yl-acetamide]",0.499 µM
4,"COc1ccc2cn(C(C(=O)Nc3nccs3)c3ccccc3)nc2c1 (racemic) [Example 4, (2RS)-2-(6-Methoxyindazol-2-yl)-2-phenyl-N-thiazol-2-yl-acetamide]",0.537 µM
5,"O=C(Nc1nccs1)C(c1ccccc1)n1cc2ccc(O)cc2n1 (racemic) [Example 5, (2RS)-2-(6-Hydroxyindazol-2-yl)-2-phenyl-N-thiazol-2-yl-acetamide]",0.199 µM
6,"O=C(Nc1nccs1)C(c1cc(F)ccc1O)n1cc2ccccc2n1 (racemic) [Example 6, (2RS)-2-(5-Fluoro-2-hydroxy-phenyl)-2-indazol-2-yl-N-thiazol-2-yl-acetamide]",0.057 µM
7,"O=C(Nc1ccccn1)C(c1ccccc1)n1cc2ccc(-c3ccc(N4CCNCC4)nc3)c(F)c2n1 (racemic) [Example 9, (2RS)-2-[7-Fluoro-6-(6-piperazin-1-yl-3-pyridyl)indazol-2-yl]-2-phenyl-N-(2-pyridyl)acetamide]",0.127 µM
8,"Nc1ccc(C#Cc2ccc3cn(C(C(=O)Nc4nccs4)c4ccccc4)nc3c2F)cn1 (racemic) [Example 11, (2RS)-2-[6-[2-(6-Amino-3-pyridyl)ethynyl]-7-fluoro-indazol-2-yl]-2-phenyl-N-thiazol-2-yl-acetamide]",0.052 µM
9,"CCN1CCN(c2ccc(-c3ccc4cn(C(C(=O)Nc5nccs5)c5cccc(F)c5)nc4c3)cn2)CC1 (racemic) [Example 13, (2RS)-2-[6-[6-(4-Ethylpiperazin-1-yl)-3-pyridyl]indazol-2-yl]-2-(3-fluorophenyl)-N-thiazol-2-yl-acetamide]",0.144 µM
10,"O=C(Nc1nccs1)C(c1cc(F)ccc1O)n1cc2cccc(-c3ccccc3)c2n1 (racemic) [Example 16, (2RS)-2-(5-Fluoro-2-hydroxy-phenyl)-2-(7-phenylindazol-2-yl)-N-thiazol-2-yl-acetamide]",0.055 µM
11,"O=C(Nc1nccs1)C(c1cc(F)ccc1O)n1cc2cccc(N3CCOCC3)c2n1 (racemic) [Example 17, (2RS)-2-(5-Fluoro-2-hydroxy-phenyl)-2-(7-morpholinoindazol-2-yl)-N-thiazol-2-yl-acetamide]",0.06 µM
12,"O=C(Nc1nccs1)C(c1cc(F)ccc1O)n1cc2ccc(Br)cc2n1 (racemic) [Example 18, (2RS)-2-(6-Bromoindazol-2-yl)-2-(5-fluoro-2-hydroxy-phenyl)-N-thiazol-2-yl-acetamide]",0.043 µM
13,"O=C(Nc1nccs1)C(c1ccccc1)n1cc2ccc(-c3ccc(N4CCNCC4)nc3)cc2n1 (racemic) [Example 20, (2RS)-2-Phenyl-2-[6-(6-piperazin-1-yl-3-pyridyl)indazol-2-yl]-N-thiazol-2-yl-acetamide hydrochloride]",0.039 µM

# Compounds with a lower IC50, results first:
row,IC50,SMILES
1,0.033 µM,"O=C(Nc1nccs1)C(c1cc(F)ccc1O)n1cc2ccc(-c3ccccc3)cc2n1 (racemic) [Example 19, (2RS)-2-(5-Fluoro-2-hydroxy-phenyl)-2-(6-phenylindazol-2-yl)-N-thiazol-2-yl-acetamide]"
2,0.032 µM,"O=C(Nc1nccs1)C(c1ccccc1)n1cc2ccc(-c3ccc(N4CCNCC4)nc3)c(Cl)c2n1 (racemic) [Example 8, (2RS)-2-[7-Chloro-6-(6-piperazin-1-yl-3-pyridyl)indazol-2-yl]-2-phenyl-N-thiazol-2-yl-acetamide]"
3,0.031 µM,"O=C(Nc1nccs1)C(c1ccccc1)n1cc2ccc(-c3ccc(N4CCNCC4)nc3)c(F)c2n1 (racemic) [Example 12, (2RS)-2-[7-Fluoro-6-(6-piperazin-1-yl-3-pyridyl)indazol-2-yl]-2-phenyl-N-thiazol-2-yl-acetamide hydrochloride]"
4,0.022 µM,"O=C(Nc1nccs1)C(c1cccc(F)c1)n1cc2ccc(C#Cc3cccnc3)cc2n1 (racemic) [Example 14, (2RS)-2-(3-Fluorophenyl)-2-[6-[2-(3-pyridyl)ethynyl]indazol-2-yl]-N-thiazol-2-yl-acetamide]"
5,0.007 µM,"Nc1ccc(C#Cc2ccc3cn(C(C(=O)Nc4ccccn4)c4cc(F)ccc4O)nc3c2F)cn1 (racemic) [Example 7, (2RS)-2-[6-[2-(6-Amino-3-pyridyl)ethynyl]-7-fluoro-indazol-2-yl]-2-(5-fluoro-2-hydroxy-phenyl)-N-(2-pyridyl)acetamide]"
6,0.001 µM,"O=C(Nc1nccs1)C(c1cc(F)ccc1O)n1cc2cccc(Br)c2n1 (racemic) [Example 15, (2RS)-2-(7-Bromoindazol-2-yl)-2-(5-fluoro-2-hydroxy-phenyl)-N-thiazol-2-yl-acetamide]"

# — US11708354B2, “2-benzopyrazinyl-n-heteroaryl-2-phenyl-acetamide compounds” (Hoffmann-La Roche Inc., priority 2016, dated 2023)
